Test results from patent US8435978B2, “Substituted sulfonamide compounds” (Gruenenthal GmbH, priority 2006, dated 2013).
Counter-ions that a name gives are not always drawn. Like-named read-outs stand apart in the source and are kept apart here.

What was measured:
human B1R receptor = target: T1, human B1R receptor (Homo sapiens, UniProt P46663); assay: Functional study on the bradykinin receptor 1 (B1R), FLIPR Ca2+ assay, hB1R cells; assay type: cell-based; settings: agonist Lys-Des-Arg9-bradykinin 0.5 nM, % inhibition compared with the maximum achievable inhibition, read-out: B1R Antagonism, human [10 μM] % Inhibition
T1 construct: host or cells: CHO K1 cells (Chinese hamster ovary), stably transfected
T1 sequence (P46663 1-353): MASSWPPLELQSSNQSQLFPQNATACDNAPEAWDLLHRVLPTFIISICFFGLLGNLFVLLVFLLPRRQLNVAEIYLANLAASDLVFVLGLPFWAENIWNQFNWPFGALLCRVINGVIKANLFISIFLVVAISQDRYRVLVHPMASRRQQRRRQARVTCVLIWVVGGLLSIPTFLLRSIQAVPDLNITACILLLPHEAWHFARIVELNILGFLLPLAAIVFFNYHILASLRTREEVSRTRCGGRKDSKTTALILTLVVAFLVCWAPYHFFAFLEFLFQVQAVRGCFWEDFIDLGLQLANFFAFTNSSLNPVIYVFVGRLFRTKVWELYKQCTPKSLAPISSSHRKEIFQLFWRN
Method in brief: (§1)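 Cells were dye-loaded 60 min at 37 °C, equilibrated 20 min at room temperature, then given 10 μM compound. Ten minutes later the species-matched agonist was added (0.5 nM Lys-Des-Arg9-bradykinin, human; 100 nM Des-Arg9-bradykinin, rat) and Ca2+ influx suppression expressed as % of maximum inhibition.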

B1R receptor of the rat = target: T2, B1R receptor of the rat (Rattus norvegicus, UniProt P97583); assay: Functional study on the bradykinin receptor 1 (B1R), FLIPR Ca2+ assay, rB1R cells; assay type: cell-based; settings: agonist Des-Arg9-bradykinin 100 nM, % inhibition compared with the maximum achievable inhibition, read-out: B1R Antagonism, rat [10 μM] % Inhibition
T2 construct: host or cells: CHO K1 cells (Chinese hamster ovary), stably transfected
T2 sequence (P97583 1-337): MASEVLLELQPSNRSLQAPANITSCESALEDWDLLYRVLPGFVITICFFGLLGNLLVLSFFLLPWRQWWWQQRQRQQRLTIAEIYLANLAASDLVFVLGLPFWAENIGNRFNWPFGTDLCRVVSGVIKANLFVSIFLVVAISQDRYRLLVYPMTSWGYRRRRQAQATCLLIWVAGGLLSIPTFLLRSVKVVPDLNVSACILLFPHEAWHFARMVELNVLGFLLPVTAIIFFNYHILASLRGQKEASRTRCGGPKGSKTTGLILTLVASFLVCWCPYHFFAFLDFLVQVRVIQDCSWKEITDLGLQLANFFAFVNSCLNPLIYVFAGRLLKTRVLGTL
Method in brief: as §1

Compound	inhibition at 10 µM (human B1R receptor; CHO-K1, test substance 10 μM) [%]	inhibition at 10 µM (B1R receptor of the rat; CHO-K1, test substance 10 μM) [%]	inhibition at 10 µM (human B1R receptor; test substance 10 μM, hB1R CHO K1 cells) [%]	inhibition at 10 µM (B1R receptor of the rat; test substance 10 μM, rB1R CHO K1 cells) [%]
COc1cc(C)c(S(=O)(=O)N2CCCCC2COCC(=O)N2CCC(N3CCN(C)CC3)CC2)c(C)c1 (stereo not shown) [Example 112, 2-((1-(4-methoxy-2,6-dimethylphenylsulfonyl)piperidin-2-yl)methoxy)-1-(4-(4-methylpiperazin-1-yl)piperidin-1-yl)ethanone hydrochloride]	102	102		
COc1cc(C)c(S(=O)(=O)N2CCCCC2COCC(=O)N2CCN(c3ncnc4ccsc34)CC2)c(C)c1 (stereo not shown) [Example 113, 2-((1-(4-methoxy-2,6-dimethylphenylsulfonyl)piperidin-2-yl)methoxy)-1-(4-(thieno[3,2-d]pyrimidin-4-yl)piperazin-1-yl)ethanone]	99.2	97.1		
Cc1cc(S(=O)(=O)N2CCCCC2COCC(=O)N2CCN(C3CCN(C)CC3)CC2)c(C)cc1Cl (stereo not shown) [Example 114, 2-((1-(4-chloro-2,5-dimethylphenylsulfonyl)piperidin-2-yl)methoxy)-1-(4-(1-methylpiperidin-4-yl)piperazin-1-yl)ethanone dihydrochloride]	102	103		
CN1CCC(N2CCN(C(=O)COCC3CCCCN3S(=O)(=O)c3ccc(Cl)c(C(F)(F)F)c3)CC2)CC1 (stereo not shown) [Example 115, 2-((1-(4-chloro-3-(trifluoromethyl)phenylsulfonyl)piperidin-2-yl)methoxy)-1-(4-(1-methylpiperidin-4-yl)piperazin-1-yl)ethanone]	102	58.1		
COc1cc(C)c(S(=O)(=O)N2CCCCC2COCC(=O)N2CCC(=O)CC2)c(C)c1 (stereo not shown) [Example 116, 1-(2-((1-(4-methoxy-2,6-dimethylphenylsulfonyl)piperidin-2-yl)methoxy)acetyl)piperidin-4-one]			74.2	101
COc1cc(C)c(S(=O)(=O)N2CCCCC2COCC(=O)N2CCN(Cc3nc4ccccc4[nH]3)CC2)c(C)c1 (stereo not shown) [Example 117, 1-(4-((1H-benzo[d]imidazol-2-yl)methyl)piperazin-1-yl)-2-((1-(4-methoxy-2,6-dimethylphenylsulfonyl)piperidin-2-yl)methoxy)ethanone]	101	101		
CN1CCC(N2CCN(C(=O)COCC3CCCCN3S(=O)(=O)c3c(Cl)cc(Cl)cc3Cl)CC2)CC1 (stereo not shown) [Example 118, 1-(4-(1-methylpiperidin-4-yl)piperazin-1-yl)-2-((1-(2,4,6-trichlorophenylsulfonyl)piperidin-2-yl)methoxy)ethanone]	104	102		
CC(C)c1cc(C(C)C)c(S(=O)(=O)N2CCCCC2COCC(=O)N2CCN(C3CCN(C)CC3)CC2)c(C(C)C)c1 (stereo not shown) [Example 119, 1-(4-(1-methylpiperidin-4-yl)piperazin-1-yl)-2-((1-(2,4,6-triisopropylphenylsulfonyl)piperidin-2-yl)methoxy)ethanone]	95.9	61.9		
CN1CCC(N2CCN(C(=O)COCC3CCCCN3S(=O)(=O)c3ccc(Cl)cc3Cl)CC2)CC1 (stereo not shown) [Example 120, 2-((1-(2,4-dichlorophenylsulfonyl)piperidin-2-yl)methoxy)-1-(4-(1-methylpiperidin-4-yl)piperazin-1-yl)ethanone]	103	103		
CN1CCC(N2CCN(C(=O)COCC3CCCCN3S(=O)(=O)c3cccc(Br)c3)CC2)CC1 (stereo not shown) [Example 121, 2-((1-(3-bromophenylsulfonyl)piperidin-2-yl)methoxy)-1-(4-(1-methylpiperidin-4-yl)piperazin-1-yl)ethanone]	70.5	52.7		
O=C(COCC1CCCCN1S(=O)(=O)c1cccc(Br)c1)N1CCN(c2ccncc2)CC1 (stereo not shown) [Example 122, 2-((1-(3-bromophenylsulfonyl)piperidin-2-yl)methoxy)-1-(4-(pyridin-4-yl)piperazin-1-yl)ethanone]	12.1	13		
CN1CCC(N2CCN(C(=O)COCC3CCCCN3S(=O)(=O)c3ccc(Br)cc3)CC2)CC1 (stereo not shown) [Example 123, 2-((1-(4-bromophenylsulfonyl)piperidin-2-yl)methoxy)-1-(4-(1-methylpiperidin-4-yl)piperazin-1-yl)ethanone]	43.9	79.9		
O=C(COCC1CCCCN1S(=O)(=O)c1cccc(Br)c1)N1CCC(CCN2CCCC2)CC1 (stereo not shown) [Example 124, 2-((1-(3-bromophenylsulfonyl)piperidin-2-yl)methoxy)-1-(4-(2-(pyrrolidin-1-yl)ethyl)piperidin-1-yl)ethanone]	76.3	63.2		
O=C(COCC1CCCCN1S(=O)(=O)c1ccc(Br)cc1)N1CCC(CCN2CCCC2)CC1 (stereo not shown) [Example 125, 2-((1-(4-bromophenylsulfonyl)piperidin-2-yl)methoxy)-1-(4-(2-(pyrrolidin-1-yl)ethyl)piperidin-1-yl)ethanone]	50.6	95.4		
O=C(COCC1CCCCN1S(=O)(=O)c1ccc(Br)cc1)N1CCN(c2ccncc2)CC1 (stereo not shown) [Example 126, 2-((1-(4-bromophenylsulfonyl)piperidin-2-yl)methoxy)-1-(4-(pyridin-4-yl)piperazin-1-yl)ethanone]	46.4	81.1		
COc1cc(C)c(S(=O)(=O)N2Cc3ccccc3C[C@H]2COCC(=O)N2CCN(C3CCN(C)CC3)CC2)c(C)c1 [Example 127, (S)-2-((2-(4-methoxy-2,6-dimethylphenylsulfonyl)-1,2,3,4-tetrahydroisoquinolin-3-yl)methoxy)-1-(4-(1-methylpiperidin-4-yl)piperazin-1-yl)ethanone]	102	93.7		
Cc1nn(C)c(Cl)c1S(=O)(=O)N1CCCCC1COCC(=O)N1CCN(C2CCN(C)CC2)CC1 (stereo not shown) [Example 128, 2-((1-(5-chloro-1,3-dimethyl-1H-pyrazol-4-ylsulfonyl)piperidin-2-yl)methoxy)-1-(4-(1-methylpiperidin-4-yl)piperazin-1-yl)ethanone]	90.8	94.5		
CN1CCC(N2CCN(C(=O)COCC3CCCCN3S(=O)(=O)c3c(Cl)nc4sccn34)CC2)CC1 (stereo not shown) [Example 129, 2-((1-(6-chloroimidazo[2,1-b]thiazol-5-ylsulfonyl)piperidin-2-yl)methoxy)-1-(4-(1-methylpiperidin-4-yl)piperazin-1-yl)ethanone]	0.03	31.2		
COc1cc(C)c(S(=O)(=O)N2CCCCC2COCC(=O)N2CCC(N3CCC(F)CC3)CC2)c(C)c1 (stereo not shown) [Example 130, 1-(4-fluoro-1,4′-bipiperidin-1′-yl)-2-((1-(4-methoxy-2,6-dimethylphenylsulfonyl)piperidin-2-yl)methoxy)ethanone]	103	96.3		
Cc1ccccc1Oc1cccc(S(=O)(=O)N2CCCCC2COCC(=O)N2CCN(C3CCN(C)CC3)CC2)c1 (stereo not shown) [Example 131, 1-(4-(1-methylpiperidin-4-yl)piperazin-1-yl)-2-((1-(3-(o-tolyloxy)phenylsulfonyl)piperidin-2-yl)methoxy)ethanone]	82.1	95.4		
